The target of data set [1] is T1, JAK2 (Homo sapiens, UniProt O60674).
T1 construct: purchased Reaction Biology Inc
In words: HotSpot kinase assay (Reaction Biology), JAK2. Format: biochemical. The settings on record: in vitro, HotSpot method.

Data set [2] has as its system MDA-MB-468 cells. In words: Soft agar anchorage-independent growth, MDA-MB-468. The format is cell-based, human. The settings on record: MDA-MB-468, increasing concentrations. Here is the method: For analysis of anchorage-independent growth, log-phase growing cells were trypsinized, and triplicates of 1.5 × 10^3 cells per well were seeded in regular growth medium containing 0.3% agar (Sigma) and drug added at the indicated concentrations, as previously described. The cells were allowed to incubate at 37° C for 3 weeks and fed once per week with the inhibitor before 1 mg/ml MTT (Sigma) solution was added overnight to facilitate colony counting. Colonies were scored and counted according to size, as previously described.

In data set [3] the target is T2, Aurora A (Homo sapiens, UniProt O14965).
T2 construct: purchased Reaction Biology Inc
T2 sequence (O14965 1-403): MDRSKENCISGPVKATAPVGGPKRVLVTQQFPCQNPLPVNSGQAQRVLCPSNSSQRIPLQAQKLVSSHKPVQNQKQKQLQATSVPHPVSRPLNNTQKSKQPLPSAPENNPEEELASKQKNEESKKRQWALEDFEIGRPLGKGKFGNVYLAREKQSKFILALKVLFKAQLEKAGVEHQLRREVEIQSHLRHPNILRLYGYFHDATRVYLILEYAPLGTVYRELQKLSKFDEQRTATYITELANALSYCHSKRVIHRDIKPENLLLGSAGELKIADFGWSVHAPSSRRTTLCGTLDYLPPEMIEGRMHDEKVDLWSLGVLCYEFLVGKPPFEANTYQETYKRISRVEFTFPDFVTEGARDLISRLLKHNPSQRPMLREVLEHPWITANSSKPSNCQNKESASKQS
Description: HotSpot kinase assay (Reaction Biology), Aurora A. Format: biochemical. The note with it: in vitro, HotSpot method.

Data set [4] concerns MDA-MB-468 cells. Description: Anchorage-dependent proliferation, MTT assay, MDA-MB-468. Format: cell-based. The settings on record: Homo sapiens; MDA-MB-468, MTT, 48 h. Here is the method: Cells were cultured in 96 well plates at a density of 2,000 cells/ well. The cells with siRNA transfection or with the inhibitor treatment were monitored for viability using MTT at indicated time points. At the given time points, MTT reagent was added to the media and allowed to incubate for 3 h at 37° C in a humidified incubator at 5% CO2. The medium was then removed and MTT crystals were dissolved in DMSO (Sigma). Cell viability was quantified by reading the plates at an absorbance of 540 nm on a μQuant microplate reader using KC4 data analysis software (Bio-Tek Instruments). The 540 nm absorbance of vehicle-treated wells was used to define 100% proliferation. Each condition was performed in replicates of six wells.

Data set [5] deals with MDA-MB-468 cells. Description: Matrigel Transwell invasion, MDA-MB-468. The format is cell-based, human. The note with it: MDA-MB-468, 5 μM; for inhibition at 5 µM: Homo sapiens. Here is the method:
Cells were transfected with Aurora A and JAK2 for 48 h or with siRNA for 72 h or treated with the compounds for 24 h and then were trypsinized and resuspended in serum-free medium and placed in the upper chamber of the Matrigel-coated (0.8 μg/μL, BD Biosciences, San Diego, CA) Transwell insert (from 2 to 5 × 10^4 cells/well) and with 0.5% DMSO or the compounds at the indicated dose. Medium containing 10%FBS was placed in the lower chamber. […] Invading cells in the membrane were fixed with 100% methanol and stained with fresh prepared 0.2% crystal violet. Noninvasive cells in the upper chamber were removed by wiping the upper side of the membrane with a cotton swab, and cells located on the underside of the filter were observed and photographed under Olympus stereo microscope. The number of invading cells was counted using Image-Pro analysis software.

Data set [6] concerns P-Histone H3 (Ser-10), Aurora B substrate. In words: Western blot, phosphorylation of Histone H3 in MDA-MB-468 cells. The format is cell-based, human. The note with it: MDA-MB-468, increasing concentrations, 2 h. Here is the method: (§1) Cells were plated in 6 cm dishes at a density of 2 × 10^5 cells/dish. Aurora A activity was determined by measuring autophosphorylation of Aurora A on Thr288 in cells that were synchronized by treatment with nocodazole (100 ng/mL) for 20 h prior to the treatment with Aurora inhibitors, whereas Aurora B activity was determined by measuring phosphorylation of histone H3 on Ser-10 (p-HH3). […] Cells were harvested after 2 h of treatment and processed for SDS−PAGE and Western blotting.
(§2) Cells were harvested from experiments of ectopic expression or knockdown using siRNA or the treatment with the inhibitors, washed, and then lysed using lysis buffer as previously described. The protein concentration of the lysate was measured, and the lysate was mixed with gel electrophoresis loading buffer, boiled for 5 minutes, separated by SDS-PAGE, and transferred to nitrocellulose membranes.
For orientation: A western blot detects proteins with antibodies after separation by electrophoresis.

The target of data set [7] is T3, Aurora B (Homo sapiens, UniProt Q96GD4).
T3 construct: purchased Reaction Biology Inc
T3 sequence (Q96GD4 whole entry): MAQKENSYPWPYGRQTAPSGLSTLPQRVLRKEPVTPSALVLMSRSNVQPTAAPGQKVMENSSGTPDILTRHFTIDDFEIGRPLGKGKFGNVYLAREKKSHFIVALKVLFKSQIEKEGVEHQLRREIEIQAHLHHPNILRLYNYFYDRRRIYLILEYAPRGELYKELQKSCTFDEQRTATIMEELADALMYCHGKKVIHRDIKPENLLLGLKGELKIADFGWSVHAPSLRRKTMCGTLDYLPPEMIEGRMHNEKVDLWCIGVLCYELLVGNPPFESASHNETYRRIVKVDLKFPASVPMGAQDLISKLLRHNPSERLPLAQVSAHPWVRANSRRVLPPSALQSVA
Description: HotSpot kinase assay (Reaction Biology), Aurora B. Format: biochemical. The note with it: in vitro, HotSpot method.

The subject of data set [8] is MDA-MB-468 tumor xenografts. In words: MDA-MB-468 tumor xenografts in nude mice. The format is in vivo. The note with it: 50 mpk i.p. daily for 14 days. Here is the method:
(§3) Female nude mice (Charles River Laboratories, Wilmington, MA) were maintained and treated in accordance with the Institutional Animal Care and Use Committee procedures and guidelines. Exponentially growing MDA-MB-468 cells were harvested via trypsinization, pelleted at 400 g for 5 min. Cell pellets were re-suspended in DPBS (Invitrogen) at 10 x10^6 cells per 200 μl, and injected into right flank of mice. The tumor xenografts were monitored with an electronic caliper measurements and tumor volume (V) was calculated using the formula V= (W × L^2)/2, where width is the largest diameter and length is the smallest diameter. When the tumors reached ~ 250 mm^3, the animals were randomized and treatment schedules were implemented. Treatments consisted of intraperitoneal (i.p.) injections of vehicle control (50% polyethylene glycol (PG) + 15% 2-hydroxypropyl-beta-cyclodextrin (HPCD) (n=5) or AJI-100 (n=6) at 50 mg/kg, everyday for 14 days.

Data set [9] is described as follows: Mouse weights during xenograft study. Format: in vivo, nude mice. The settings on record: 50 mpk i.p. daily, over the 14-day treatment period; vehicle 3.33 %. Here is the method:
as §3

Data set [10] has as its system P-STAT3 (Y705), JAK2 substrate. Description: Western blot, phosphorylation of STAT3 in MDA-MB-468 cells. The format is cell-based, human. The settings on record: MDA-MB-468, increasing concentrations, 2 h. Here is the method: as §1, §2
Data set [11] relates to FLT3. Further details: method as in PMID 15126317. The note with it: cited from earlier work.

The term IC50 denotes the concentration at which inhibition is half-maximal. Usually inhibition stands for the percentage by which the read-out fell short of the control.

T1 sequence (O60674 whole entry): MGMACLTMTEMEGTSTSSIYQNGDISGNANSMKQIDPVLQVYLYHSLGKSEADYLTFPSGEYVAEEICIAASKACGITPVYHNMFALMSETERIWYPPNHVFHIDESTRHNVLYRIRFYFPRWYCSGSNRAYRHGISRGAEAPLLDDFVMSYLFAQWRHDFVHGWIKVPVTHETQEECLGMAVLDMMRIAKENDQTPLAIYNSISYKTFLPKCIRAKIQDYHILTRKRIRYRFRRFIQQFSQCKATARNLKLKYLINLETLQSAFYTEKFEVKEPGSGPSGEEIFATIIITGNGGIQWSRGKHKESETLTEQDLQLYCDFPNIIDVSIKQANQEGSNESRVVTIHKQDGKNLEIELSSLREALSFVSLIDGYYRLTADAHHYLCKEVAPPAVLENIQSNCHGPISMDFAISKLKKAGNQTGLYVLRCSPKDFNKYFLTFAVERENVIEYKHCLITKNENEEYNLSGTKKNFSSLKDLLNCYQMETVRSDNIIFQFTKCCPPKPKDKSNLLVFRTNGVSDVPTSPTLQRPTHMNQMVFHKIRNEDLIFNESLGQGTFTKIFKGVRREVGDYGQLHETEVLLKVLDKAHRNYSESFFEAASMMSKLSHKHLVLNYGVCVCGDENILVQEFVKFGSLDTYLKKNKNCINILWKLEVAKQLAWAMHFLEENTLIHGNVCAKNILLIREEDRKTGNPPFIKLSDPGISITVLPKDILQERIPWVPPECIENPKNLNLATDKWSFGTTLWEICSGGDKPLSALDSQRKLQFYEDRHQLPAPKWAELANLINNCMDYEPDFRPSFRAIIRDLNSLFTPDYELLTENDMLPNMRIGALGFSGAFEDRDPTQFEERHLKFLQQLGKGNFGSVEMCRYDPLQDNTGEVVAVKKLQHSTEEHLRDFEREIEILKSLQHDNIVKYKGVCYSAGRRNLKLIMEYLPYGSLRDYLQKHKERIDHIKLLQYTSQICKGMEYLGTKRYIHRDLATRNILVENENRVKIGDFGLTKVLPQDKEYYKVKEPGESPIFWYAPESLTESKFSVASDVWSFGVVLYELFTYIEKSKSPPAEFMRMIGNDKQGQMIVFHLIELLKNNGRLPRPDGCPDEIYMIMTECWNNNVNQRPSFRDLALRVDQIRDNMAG

Consider `NC(=O)c1ccc(Nc2ncc(F)c(Nc3ccccc3)n2)cc1` [AJI-100], for which the IC50 was determined as 51 nM in data set [1], 5.4 nM in [3], 3600 nM in data set [4] and 14 nM in [7]. Further, the “colony formation in soft agar” value in data set [2] is on record as “inhibited colony formation”. The results for the inhibition at 5 µM in data set [5] (48 hr) and in data set [5] (72 hr) were 41.1% and 89.8%, respectively. Moreover, the invaded cells in data set [5] (48 hr, vehicle 723) turned out to be 426 cells; in data set [5] (72 hr, vehicle 1020), 104 cells. In addition, in data set [6], the “effect on phosphorylation of Histone H3 (Ser-10)” value is “decreased”. Besides, the “tumor volume after 14 day treatment, representative mouse” value in data set [8] (regressed from 222, vehicle grew 211 to 357) is on record as 158 mm3. Besides, in [8] (vehicle grew by 40 %), the “average % change in tumor volume (regression)” value is 9%. Further, the “increase in mouse weights” value in data set [9] amounted to 0.04%. The “effect on phosphorylation of STAT3 (Y705)” value in data set [10] is listed as “decreased”.

Consider `C[C@]12O[C@H](C[C@]1(O)CO)n1c3ccccc3c3c4c(c5c6ccccc6n2c5c31)CNC4=O` [CEP-701], for which, in data set [11], the IC50 was […].

The record behind these values is article PMC4102782, “Dual Aurora A and JAK2 kinase blockade effectively suppresses malignant transformation” (Oncotarget, 2014).
